Consider four molecules from patent publication US20230398130A1, “METHODS AND COMPOSITIONS FOR DIFFERENTIATING STEM CELLS” (Massachusetts Institute of Technology, priority 2020, published 2023).

Molecules are shown by their SMILES.

Assay [1] has as its system ISC-enriched organoids. Kind of assay: Primary screen, 384-well 2.5-D organoid differentiation (ENR+CD, 6 days): basal lysozyme secretion (LYZ.NS). Type of assay: cell-based, murine. Conditions: for Dose.FC.LYZ.NS: primary screen, FC vs plate median; for Z.LYZ.NS: standard z score of FC. From the text:
(§1) High-throughput screening.

The subject of assay [2] is ISC-enriched organoids. Description: Primary screen, 384-well 2.5-D organoid differentiation (ENR+CD, 6 days): carbachol-induced lysozyme secretion (LYZ.S). Type of assay: cell-based, murine. Conditions: primary screen, FC vs plate median.
Source text: as §1

Assay [3] has as its system ISC-enriched organoids. Description: Primary screen, 384-well 2.5-D organoid differentiation (ENR+CD, 6 days, Target Selective Inhibitor Library, vs whole-plate median): ATP (CellTiter-Glo 3D, CTG). Conditions: for Dose.FC.CTG: primary screen, FC vs plate median; for Z.CTG: standard z score of FC. On the technique in general: ATP-based viability assays read luminescence as a measure of living cells.

For `C1=N/C2=N/c3ccc(OCCN4CCCC4)c(c3)COC/C=C/COCc3cccc(c3)C(=C1)N2` [Pacritinib (SB1518)], the Dose.FC.LYZ.NS with ISC-enriched organoids [1] (Dose 0.08 uM) is 0.091 log 2 fold change; in the assay on ISC-enriched organoids [1] (Dose 0.40 uM), −0.034 log 2 fold change; in the assay on ISC-enriched organoids [1] (Dose 2.00 uM), −0.219 log 2 fold change; with ISC-enriched organoids [1] (Dose 10.00 uM) it was −0.275 log 2 fold change. Also, the Z.LYZ.NS is listed as 0.795 with ISC-enriched organoids [1] (Dose 0.08 uM), −0.299 in the assay with ISC-enriched organoids [1] (Dose 0.40 uM), −1.908 in the assay on ISC-enriched organoids [1] (Dose 2.00 uM) and −2.391 in the assay on ISC-enriched organoids [1] (Dose 10.00 uM). Moreover, the Dose.FC.LYZ.S is on record as 0.066 log 2 fold change in the assay on ISC-enriched organoids [2] (Dose 0.08 uM), −0.032 log 2 fold change in the assay with ISC-enriched organoids [2] (Dose 0.40 uM), −0.304 log 2 fold change in the assay on ISC-enriched organoids [2] (Dose 2.00 uM) and −0.419 log 2 fold change in the assay on ISC-enriched organoids [2] (Dose 10.00 uM). The Dose.FC.CTG in the assay on ISC-enriched organoids [3] (Dose 0.08 uM) is on record as −0.006 log 2 fold change; in the assay with ISC-enriched organoids [3] (Dose 0.40 uM), 0.099 log 2 fold change; in the assay on ISC-enriched organoids [3] (Dose 2.00 uM) it was −0.235 log 2 fold change; in the assay with ISC-enriched organoids [3] (Dose 10.00 uM), −1.276 log 2 fold change. The Z.CTG in the assay with ISC-enriched organoids [3] (Dose 0.08 uM) is −0.014; with ISC-enriched organoids [3] (Dose 0.40 uM), 0.236; in the assay with ISC-enriched organoids [3] (Dose 2.00 uM), −0.560; in the assay on ISC-enriched organoids [3] (Dose 10.00 uM), −3.047.
Take `CC(=O)c1c(C)c2cnc(Nc3ccc(N4CCNCC4)cn3)nc2n(C2CCCC2)c1=O.Cl` [Palbociclib (PD-0332991) HCl]: the Dose.FC.LYZ.NS is on record as −0.006 log 2 fold change with ISC-enriched organoids [1] (Dose 0.08 uM), −0.029 log 2 fold change with ISC-enriched organoids [1] (Dose 0.40 uM), −0.051 log 2 fold change in the assay on ISC-enriched organoids [1] (Dose 2.00 uM) and −0.132 log 2 fold change in the assay on ISC-enriched organoids [1] (Dose 10.00 uM). The Z.LYZ.NS was −0.055 in the assay on ISC-enriched organoids [1] (Dose 0.08 uM), −0.248 in the assay with ISC-enriched organoids [1] (Dose 0.40 uM), −0.440 in the assay on ISC-enriched organoids [1] (Dose 2.00 uM) and −1.150 in the assay with ISC-enriched organoids [1] (Dose 10.00 uM). Also, the Dose.FC.LYZ.S with ISC-enriched organoids [2] (Dose 0.08 uM) is reported as 0.004 log 2 fold change; in the assay with ISC-enriched organoids [2] (Dose 0.40 uM), −0.042 log 2 fold change; with ISC-enriched organoids [2] (Dose 2.00 uM) it was −0.122 log 2 fold change; with ISC-enriched organoids [2] (Dose 10.00 uM), −0.203 log 2 fold change. The Dose.FC.CTG in the assay with ISC-enriched organoids [3] (Dose 0.08 uM) is 0.169 log 2 fold change; with ISC-enriched organoids [3] (Dose 0.40 uM), −0.350 log 2 fold change; in the assay on ISC-enriched organoids [3] (Dose 2.00 uM), −0.083 log 2 fold change; with ISC-enriched organoids [3] (Dose 10.00 uM) it was −0.677 log 2 fold change. Besides, the Z.CTG with ISC-enriched organoids [3] (Dose 0.08 uM) is listed as 0.404; with ISC-enriched organoids [3] (Dose 0.40 uM), −0.836; in the assay on ISC-enriched organoids [3] (Dose 2.00 uM) it was −0.199; in the assay with ISC-enriched organoids [3] (Dose 10.00 uM), −1.617.
`CC(=O)O[C@H]1C[C@@H]2CC[C@@H]3[C@H](CC[C@@]4(C)[C@H]3C[C@H]([N+]3(C)CCCCC3)[C@@H]4OC(C)=O)[C@@]2(C)C[C@@H]1[N+]1(C)CCCCC1.[Br-].[Br-]` [Pancuronium dibromide]: the Dose.FC.LYZ.NS in the assay with ISC-enriched organoids [1] (Dose 0.08 uM) came to 0.128 log 2 fold change; in the assay with ISC-enriched organoids [1] (Dose 0.40 uM), 0.047 log 2 fold change; in the assay on ISC-enriched organoids [1] (Dose 2.00 uM) it was 0.093 log 2 fold change; in the assay with ISC-enriched organoids [1] (Dose 10.00 uM), 0.035 log 2 fold change. For the same molecule, the Z.LYZ.NS with ISC-enriched organoids [1] (Dose 0.08 uM) amounted to 1.118; in the assay on ISC-enriched organoids [1] (Dose 0.40 uM), 0.406; in the assay with ISC-enriched organoids [1] (Dose 2.00 uM), 0.806; in the assay with ISC-enriched organoids [1] (Dose 10.00 uM), 0.302. Besides, the Dose.FC.LYZ.S is listed as 0.213 log 2 fold change in the assay on ISC-enriched organoids [2] (Dose 0.08 uM), 0.094 log 2 fold change in the assay on ISC-enriched organoids [2] (Dose 0.40 uM), 0.099 log 2 fold change in the assay on ISC-enriched organoids [2] (Dose 2.00 uM) and 0.004 log 2 fold change with ISC-enriched organoids [2] (Dose 10.00 uM). The Dose.FC.CTG in the assay with ISC-enriched organoids [3] (Dose 0.08 uM) is on record as 0.217 log 2 fold change; in the assay on ISC-enriched organoids [3] (Dose 0.40 uM), 0.226 log 2 fold change; in the assay on ISC-enriched organoids [3] (Dose 2.00 uM), −0.012 log 2 fold change; in the assay with ISC-enriched organoids [3] (Dose 10.00 uM), 0.062 log 2 fold change. Also, the Z.CTG in the assay on ISC-enriched organoids [3] (Dose 0.08 uM) is 0.519; in the assay on ISC-enriched organoids [3] (Dose 0.40 uM), 0.541; in the assay with ISC-enriched organoids [3] (Dose 2.00 uM) it was −0.029; with ISC-enriched organoids [3] (Dose 10.00 uM), 0.148.
Consider `Cc1[nH]c2ccccc2c1CCNCc1ccc(/C=C/C(=O)NO)cc1` [Panobinostat (LBH589)], for which the Dose.FC.LYZ.NS in the assay with ISC-enriched organoids [1] (Dose 0.08 uM) is on record as 0.002 log 2 fold change; in the assay with ISC-enriched organoids [1] (Dose 0.40 uM), −0.027 log 2 fold change; in the assay with ISC-enriched organoids [1] (Dose 2.00 uM), −0.153 log 2 fold change; with ISC-enriched organoids [1] (Dose 10.00 uM), −0.217 log 2 fold change. The Z.LYZ.NS with ISC-enriched organoids [1] (Dose 0.08 uM) is 0.014; in the assay with ISC-enriched organoids [1] (Dose 0.40 uM) it was −0.232; in the assay with ISC-enriched organoids [1] (Dose 2.00 uM), −1.329; with ISC-enriched organoids [1] (Dose 10.00 uM), −1.891. Besides, the Dose.FC.LYZ.S in the assay with ISC-enriched organoids [2] (Dose 0.08 uM) was −0.034 log 2 fold change; with ISC-enriched organoids [2] (Dose 0.40 uM), −0.042 log 2 fold change; in the assay with ISC-enriched organoids [2] (Dose 2.00 uM), −0.285 log 2 fold change; in the assay with ISC-enriched organoids [2] (Dose 10.00 uM), −0.320 log 2 fold change. The Dose.FC.CTG with ISC-enriched organoids [3] (Dose 0.08 uM) is on record as 0.295 log 2 fold change; in the assay with ISC-enriched organoids [3] (Dose 0.40 uM), 0.212 log 2 fold change; with ISC-enriched organoids [3] (Dose 2.00 uM), −0.537 log 2 fold change; in the assay on ISC-enriched organoids [3] (Dose 10.00 uM), −1.003 log 2 fold change. Also, the Z.CTG with ISC-enriched organoids [3] (Dose 0.08 uM) is 0.706; in the assay with ISC-enriched organoids [3] (Dose 0.40 uM), 0.506; in the assay with ISC-enriched organoids [3] (Dose 2.00 uM) it was −1.283; with ISC-enriched organoids [3] (Dose 10.00 uM), −2.395.
